Measured values as given in article PMC10584170, “Machine learning-based phenotypic imaging to characterise the targetable biology of Plasmodium falciparum male gametocytes for the development of transmission-blocking antimalarials” (PLOS Pathogens, 2023).
Read-outs that look alike come from different tables or passages of the source.

Legend:
[1] = test system: P. falciparum male gametocytes; experiment: P. falciparum Dual Gamete Formation Assay (PfDGFA), male readout (exflagellation); type: cell-based, Plasmodium falciparum NF54; conditions: for inhibition at 2 µM: 24h preincubation with gametocytes
Experimental: (§1) P. falciparum NF54 (originally isolated from an imported malaria case in the Netherlands in the 1980s; BEI Resources, cat. No. MRA-1000) strain asexual parasites were maintained between 0.3–5% parasitaemia by regular passage in complete culture medium (RPMI supplemented with 25 mM HEPES, 50 μg ml^−1 hypoxanthine, 4.8 g l^−1 NaHCO3, 2mM L-glutamine, 5% pooled type AB serum, 0.5% Albumax II (Gibco)) at 4% haematocrit in washed whole blood (National Blood and Transfusion Service or Centro de Transfusiones de la Comunidad de Madrid CTCM) under a 1% O2/3% CO2/96% N2 environment. Gametocytes were induced by seeding culture flasks at 2% parasitaemia/4% haematocrit and subjecting them to daily medium changes for 14 days whilst maintaining a temperature of 37°C at all times. On Day 14, the maturity of gametocytes was assessed by quantifying male gametogenesis (exflagellation). A 20 μl sample of gametocyte culture was mixed with equal volume of ookinete medium (complete culture medium supplemented with 0.1 μM xanthurenic acid) at room temperature and transferred to a haemocytometer. After 20 min at room temperature, exflagellation was accurately quantified as described in Delves et al. 2016 [17].
(§2) The Pf DGFA was performed as described in Delves et al. 2016 [17]. […] Plates were then incubated for 24 h at 37°C in a humidified box under a 1% O2/3% CO2/96% N2 gas mix. Gametogenesis was triggered by addition of 10 μl per well of ookinete medium + 0.27 μg ml^-1 Cy3-labelled anti-Pfs25 antibody. Plates were incubated on a metal block at 4°C for 4 min to ensure even cooling, then 28°C for a further 4 min. Exflagellation was recorded by capturing 10 frames over 1 s under brightfield illumination using a x4 objective with a 1.5x zoom (effectively x6) attached to an automated Nikon Ti fluorescence microscope. After recording exflagellation, plates were incubated for a further 24 h in the dark at 28°C to ensure maximal expression of Pfs25 by female gametes. The plates were then returned to the microscope and female gametes imaged at x6 using fluorescence microscopy.
(§3) Exflagellation centres and female gametes were quantified using custom image analysis pipelines developed within ICY Bioimage Analysis (https://icy.bioimageanalysis.org/).

[2] = test system: P. falciparum female gametocytes; experiment: P. falciparum Dual Gamete Formation Assay (PfDGFA), female readout (Pfs25-positive female gametes); type: cell-based, Plasmodium falciparum NF54; conditions: for inhibition at 2 µM: 24h preincubation with gametocytes
Experimental: as §1, §2, §3

[3] = PfDGFA at 2µM, 24h preincubation with gametocytes prior to induction of gametogenesis, replicate R1
[4] = PfDGFA at 2µM, 24h preincubation with gametocytes prior to induction of gametogenesis, replicate R3
[5] = PfDGFA at 2µM, 24h preincubation with gametocytes prior to induction of gametogenesis, replicate R4
[6] = PfDGFA at 2µM, 24h preincubation, average of replicates
[7] = 2µM, 24h preincubation with gametocytes prior to induction of gametogenesis, average of replicates
[8] = 2µM, 24h preincubation with gametocytes prior to induction of gametogenesis, replicate R1
[9] = 2µM, 24h preincubation with gametocytes prior to induction of gametogenesis, replicate R4
[10] = 2µM, 24h preincubation with gametocytes prior to induction of gametogenesis, replicate R3

## CCOC(=O)c1cc(C(=O)OC)c2ccccn12 [TCMDC-124299]
[1]; [3]
  % inhibition male (individual replicates) R1: 15.7%
[1]; [4]
  % inhibition male (individual replicates) R3: -23.4%
[1]; [5]
  % inhibition male (individual replicates) R4: -23.1%
[1]; [6]
  Average inhibition male (%): -9.0%
[2]; [3]
  % inhibition female (individual replicates) R1: 6.3%
[2]; [4]
  % inhibition female (individual replicates) R3: -21.8%
[2]; [5]
  % inhibition female (individual replicates) R4: 0.07%
[2]; [6]
  Average inhibition female (%): -2.7%

## [O-][S+]1c2ccccc2Sc2ccccc21 [TCMDC-124300]
[1]; [3]
  % inhibition male (individual replicates) R1: 13.3%
[1]; [4]
  % inhibition male (individual replicates) R3: 4.0%
[1]; [5]
  % inhibition male (individual replicates) R4: -37.1%
[1]; [6]
  Average inhibition male (%): -9.5%
[2]; [3]
  % inhibition female (individual replicates) R1: 9.4%
[2]; [4]
  % inhibition female (individual replicates) R3: -8.0%
[2]; [5]
  % inhibition female (individual replicates) R4: -1.0%
[2]; [6]
  Average inhibition female (%): -3.0%

## CCCCNS(=O)(=O)c1ccc(NC(=O)c2cc([N+](=O)[O-])ccc2Cl)cc1 [TCMDC-124345]
[1]; HepG2 Tox50 versus male IC50
  Selectivity Ratio M: 267.48
[1]; Plasmodium falciparum, 2µM, average of replicates, read-out: Average inhibition male (%)
  inhibition at 2 µM: 100%
[1]; Plasmodium falciparum, 2µM, replicate R1, read-out: % inhibition male (individual replicates) R1
  inhibition at 2 µM: 101%
[1]; Plasmodium falciparum, 2µM, replicate R2, read-out: % inhibition male (individual replicates) R2
  inhibition at 2 µM: 102%
[1]; Plasmodium falciparum, 2µM, replicate R3, read-out: % inhibition male (individual replicates) R3
  inhibition at 2 µM: 100%
[1]; Plasmodium falciparum, 2µM, replicate R4, read-out: % inhibition male (individual replicates) R4
  inhibition at 2 µM: 98.2%
[1]; Plasmodium falciparum, PfDGFA, 24 h incubation with gametocytes before induction, exflagellation readout, read-out: Male IC50
  IC50: 0.37 µM
[2]; HepG2 Tox50 versus female IC50
  Selectivity ratio F: 13.22
[2]; Plasmodium falciparum, 2µM, average of replicates, read-out: Average inhibition female (%)
  inhibition at 2 µM: 20%
[2]; Plasmodium falciparum, 2µM, replicate R1, read-out: % inhibition female (individual replicates) R1
  inhibition at 2 µM: 27.9%
[2]; Plasmodium falciparum, 2µM, replicate R2, read-out: % inhibition female (individual replicates) R2
  inhibition at 2 µM: 30.3%
[2]; Plasmodium falciparum, 2µM, replicate R3, read-out: % inhibition female (individual replicates) R3
  inhibition at 2 µM: 6.6%
[2]; Plasmodium falciparum, 2µM, replicate R4, read-out: % inhibition female (individual replicates) R4
  inhibition at 2 µM: 15%
[2]; Plasmodium falciparum, PfDGFA, 24 h incubation with gametocytes before induction, female gamete readout, read-out: Female IC50
  IC50: 7.56 µM

## CC(=O)Nc1ccc(Nc2c3ccccc3nc3ccccc23)cc1 [TCMDC-124356]
[1]; [7]
  Average inhibition male (%): 30.9%
[1]; [8]
  % inhibition male (individual replicates) R1: 50.9%
[1]; [9]
  % inhibition male (individual replicates) R4: -15.9%
[1]; 2µM, 24h preincubation, hits selected on >50% inhibition in the male readout across replicates
  HitlevelM: 2
[1]; PfDGFA at 2µM, 24h preincubation, hit = >50% inhibition in male or female readout in at least 3 replicates, 0 = no class assigned
  Activity: 0
[2]; [7]
  Average inhibition female (%): 14.4%
[2]; [8]
  % inhibition female (individual replicates) R1: 47.3%
[2]; [10]
  % inhibition female (individual replicates) R3: 8.8%
[2]; [9]
  % inhibition female (individual replicates) R4: 12.0%
[2]; 2µM, 24h preincubation, hits selected on >50% inhibition in the female readout across replicates
  HitlevelF: 0

## CC(C)(C)Nc1cc(C2CC2)nc(-c2ccccn2)n1 [TCMDC-124453]
[1]; [7]
  Average inhibition male (%): 8.7%
[1]; [8]
  % inhibition male (individual replicates) R1: 15.7%
[1]; [10]
  % inhibition male (individual replicates) R3: 8.7%
[1]; [9]
  % inhibition male (individual replicates) R4: 17.6%
[1]; 2µM, 24h preincubation, number of replicates with >50% inhibition in the male readout
  HitlevelM: 0
[2]; [7]
  Average inhibition female (%): 32.5%
[2]; [8]
  % inhibition female (individual replicates) R1: 36.3%
[2]; [10]
  % inhibition female (individual replicates) R3: 27.2%
[2]; [9]
  % inhibition female (individual replicates) R4: 34.1%
[2]; 2µM, 24h preincubation, number of replicates with >50% inhibition in the female readout
  HitlevelF: 0

## Cc1ccc(-c2nnc3c4ccccc4c(C)nn23)cc1S(=O)(=O)N1CCN(CCO)CC1 [TCMDC-124482]
[1]; [3]
  % inhibition male (individual replicates) R1: 14.3%
[1]; [4]
  % inhibition male (individual replicates) R3: -2.0%
[1]; [5]
  % inhibition male (individual replicates) R4: 34.9%
[1]; [6]
  Average inhibition male (%): 14.9%
[2]; [3]
  % inhibition female (individual replicates) R1: 11.9%
[2]; [4]
  % inhibition female (individual replicates) R3: -40.2%
[2]; [5]
  % inhibition female (individual replicates) R4: 14.7%
[2]; [6]
  Average inhibition female (%): -3.6%
